Laboratory results from patent US20020162794A1, “Anaerobic digestion” (priority 2001, published 2002).
Several values for one entry are separate records, joined by “and”; a condition that tells them apart may be missing. Identical values can stand only once.

System: mixed culture from a publicly owned anaerobic digester (domestic sewage sludge)
Experiment: Chemical Oxygen Demand (COD) of batch anaerobic digester reactors
Protocol: Two tests were run in which sodium formate in concentrations ranging from a few parts per million (ppm) up to ten percent (10%) on a mass basis were added to samples taken from a publicly owned anaerobic digester. The samples were first cultured in laboratory sized batch reactors. The twelve batch reactors were then sampled, and studied for periods of up to fifty-five days. The process variables that were monitored included COD (Chemical Oxygen Demand), TS (Total Solids), TVS (Total Volatile Solids) and the pH of the culture. Time and the initial sodium formate concentration level were the independent variables. Finally measurements were also made of the bacterial counts at the beginning and at the end of the fifty five day period. These experimental observations permitted partial identifications of the predominant bacterial colonies still viable in each of the twelve reactors used for each trial of the laboratory study.
Chemical Oxygen Demand (COD) measurements
To perform this measurement, a 5 ml of the sample from each of the 12 reactors is taken and diluted 10-fold to 50 ml. 5 ml of the now diluted sample is again diluted 10 fold to 50 ml. This double dilution represents a 100-fold dilution of the original sample. 2 ml of these diluted samples are put into standard COD test tubes. The test tubes are closed and shaken vigorously. The 13 (COD) test tubes (one is a control) are then heated to 150 deg. C for two hours. The UV spectrometer is calibrated by first analyzing the test tube with pure distilled water as the zero COD or control sample.
The sample test tubes are then analyzed for COD using UV spectrometer after inputting the method number and adjusting the frequency of UV rays to correspond to a sample with a high organic loading range. The readings that were obtained in units of mg/liter are multiplied by 100 to correct for the dilution procedure and to get COD concentration level for the original sample. COD is indicative of the organic substrate load level in the wastewater being treated or tested.
Municipal sludge from the city of Lubbock, Wastewater Treatment Plant was digested in 12 batch digesters. Using twelve batch reactors allowed the collection of control reactors data (i.e., no formate in the reactors) in triplicate, titration studies of increasing formate concentration, and duplicates/triplicates of varying formate concentration. Experiments were conducted in the laboratories of Texas Tech University.
The substrate taken was 2 parts of 50 g/liter sucrose solution mixed with 1 part of digested municipal sludge which acts as the seed material for incorporation of microbes into the reactors. The experiments were started with the following protocol. [drawing 1]

`O=C[O-].[Na+]` [sodium formate] was tested, and the “COD Concentration” value (1/4/99 run, 100 ppm, 0 Day) was 29.5 g/L, the “COD Concentration” value (1/4/99 run, 100 ppm, 15 days) was 43.8 g/L and the “COD Concentration” value (1/4/99 run, 100 ppm, 30 days) was 39.1 g/L. For the same compound, the “COD Concentration” value (1/4/99 run, 1250 ppm, 0 Day) was 40.3 g/L, the “COD Concentration” value (1/4/99 run, 1250 ppm, 15 days) was 42.7 g/L and the “COD Concentration” value (1/4/99 run, 1250 ppm, 30 days) was 32 g/L. For the same compound, the “COD Concentration” value (1/4/99 run, 2500 ppm, 0 Day) was 17.1 g/L, the “COD Concentration” value (1/4/99 run, 2500 ppm, 15 days) was 41.4 g/L and the “COD Concentration” value (1/4/99 run, 2500 ppm, 30 days) was 38.9 g/L. For the same compound, the “COD Concentration” value (1/4/99 run, 3750 ppm, 0 Day) was 38 g/L, the “COD Concentration” value (1/4/99 run, 3750 ppm, 15 days) was 40.7 g/L and the “COD Concentration” value (1/4/99 run, 3750 ppm, 30 days) was 47.8 g/L. The “COD Concentration” value (1/4/99 run, 5000 ppm, 0 Day) was 37.5 g/L, the “COD Concentration” value (1/4/99 run, 5000 ppm, 15 days) was 43.1 g/L and the “COD Concentration” value (1/4/99 run, 5000 ppm, 30 days) was 46.6 g/L. The “COD Concentration” value (1/4/99 run, 6250 ppm, 0 Day) was 34.3 g/L, the “COD Concentration” value (1/4/99 run, 6250 ppm, 15 days) was 44.1 g/L and the “COD Concentration” value (1/4/99 run, 6250 ppm, 30 days) was 38.1 g/L. The “COD Concentration” value (1/4/99 run, 7500 ppm, 0 Day) was 36.7 g/L, the “COD Concentration” value (1/4/99 run, 7500 ppm, 15 days) was 33 g/L and the “COD Concentration” value (1/4/99 run, 7500 ppm, 30 days) was 55.8 g/L. The “COD Concentration” value (1/4/99 run, 8750 ppm, 0 Day) was 24.9 g/L, the “COD Concentration” value (1/4/99 run, 8750 ppm, 15 days) was 26.1 g/L and the “COD Concentration” value (1/4/99 run, 8750 ppm, 30 days) was 53.8 g/L. The “COD Concentration” value (1/4/99 run, 10000 ppm, 0 Day) was 33.8 g/L, the “COD Concentration” value (1/4/99 run, 10000 ppm, 15 days) was 36.1 g/L and the “COD Concentration” value (1/4/99 run, 10000 ppm, 30 days) was 45.5 g/L. For the same compound, the “COD Concentration, Average” value (1/4/99 run, average 25 ppm (reactors 0, 0, 0, 100 ppm), 0 Day) was 37.825 g/L, the “COD Concentration, Average” value (1/4/99 run, average 25 ppm (reactors 0, 0, 0, 100 ppm), 15 days) was 51.23 g/L and the “COD Concentration, Average” value (1/4/99 run, average 25 ppm (reactors 0, 0, 0, 100 ppm), 30 days) was 39.125 g/L. For the same compound, the “COD Concentration, Average” value (1/4/99 run, average 2500 ppm (1250, 2500, 3750 ppm), 0 Day) was 31.8 g/L, the “COD Concentration, Average” value (1/4/99 run, average 2500 ppm (1250, 2500, 3750 ppm), 15 days) was 41.6 g/L and the “COD Concentration, Average” value (1/4/99 run, average 2500 ppm (1250, 2500, 3750 ppm), 30 days) was 39.57 g/L. The “COD Concentration, Average” value (1/4/99 run, average 6250 ppm (5000, 6250, 7500 ppm), 0 Day) was 36.17 g/L, the “COD Concentration, Average” value (1/4/99 run, average 6250 ppm (5000, 6250, 7500 ppm), 15 days) was 40.07 g/L and the “COD Concentration, Average” value (1/4/99 run, average 6250 ppm (5000, 6250, 7500 ppm), 30 days) was 46.83 g/L. The “COD Concentration, Average” value (1/4/99 run, average 8750 ppm (7500, 8750, 10000 ppm), 0 Day) was 31.8 g/L, the “COD Concentration, Average” value (1/4/99 run, average 8750 ppm (7500, 8750, 10000 ppm), 15 days) was 31.73 g/L and the “COD Concentration, Average” value (1/4/99 run, average 8750 ppm (7500, 8750, 10000 ppm), 30 days) was 51.7 g/L. The “COD Concentration” value (7/1/99 run (Tables 5, 6), 1000 ppm, 0 Day (with formate addition)) was 52 g/L and 60.8 g/L and 48.6 g/L, the “COD Concentration” value (7/1/99 run (Tables 5, 6), 1000 ppm, 7 Day) was 65.8 g/L and 68.2 g/L and 50.3 g/L and the “COD Concentration” value (7/1/99 run (Tables 5, 6), 1000 ppm, 1 days, listed as Format) was 51.5 g/L and 60.3 g/L and 57.2 g/L. For the same compound, the “COD Concentration” value (7/1/99 run (Tables 5, 6), 1000 ppm, 1 days, listed as Formate) was 57.2 g/L, the “COD Concentration” value (7/1/99 run (Tables 5, 6), 1000 ppm, 4 days) was 52 g/L and 51.4 g/L and 52.3 g/L and the “COD Concentration” value (7/1/99 run (Tables 5, 6), 1000 ppm, 9 days) was 54.9 g/L and 48.5 g/L and 47.7 g/L. For the same compound, the “COD Concentration” value (7/1/99 run (Tables 5, 6), 1000 ppm, 16 days) was 33.1 g/L and 41.4 g/L and 33.6 g/L, the “COD Concentration” value (7/1/99 run (Tables 5, 6), 1000 ppm, 55 days) was 34 g/L and 46.6 g/L and 38 g/L and the “COD Concentration” value (7/1/99 run (Tables 5, 6), 5000 ppm, 0 Day (with formate addition)) was 60.3 g/L. For the same compound, the “COD Concentration” value (7/1/99 run (Tables 5, 6), 5000 ppm, 7 Day) was 52.2 g/L, the “COD Concentration” value (7/1/99 run (Tables 5, 6), 5000 ppm, 1 days) was 46.8 g/L and 48.8 g/L and the “COD Concentration” value (7/1/99 run (Tables 5, 6), 5000 ppm, 4 days) was 48.9 g/L. The “COD Concentration” value (7/1/99 run (Tables 5, 6), 5000 ppm, 9 days) was 44.2 g/L.
